Measured values: patent US5453518A, “Flavone derivatives” (Recordati S.A., Chemical and Pharmaceutical Company, priority 1992, dated 1995)
Where two headings read alike, the source gives them in different places.

Experiments:
[1] = test system: rat bladder (K^+ -induced contractions); experiment: Inhibition of K^+ -induced rat bladder contractions; parameters: species or system rat (male Sprague Dawley); conditions: 0.5 h, KCl 80 mM, 30 min after drug, isolated rat bladder
Experimental: Female Albino Swiss mice [Crl: CD-1 (ICR) BR] with a body weight of 20-30 g and male Sprague Dawley rats [Crl: CD° BR] with a body weight of 200-300 g, from the Charles River Farm, Italy, were used for the trials. The animals were housed with free access to food and water and kept on a forced light-darkness cycle at 22°-24° C. until the day of the trials. Male rats were killed by a blow on their heads and their lower abdomens were opened along the midlines. Their urinary bladders were removed by a transverse dissection above the trigone and cut into two fragments (20-30 mm long, 1-2 mm wide). Each fragment was suspended in an isolated organ bath containing 10 ml of a normal Tyrode solution (composition in mM: NaCl 137, KCl 2.68, MgCl2 1.11, CaCl2 1.8, NaH2 PO4 0.41, NaHCO3 11.9, glucose 5.55) and connected, under a steady 1 g load, to an isometric transducer (DY-1, Basile). The solution was gassed with a mixture of 95% O2 and 5% CO2 and heated at 37° C. After a 60 minute equilibration the tension responses to a single KCl dose (Bath concentration=80 mM) inducing phasic and tonic contractions were measured under isometric conditions at 30 minute intervals. After recording one or more reproducible responses, a solution of the test drug was added to the bath (final concentration from 10^-4 to 10^-9 M) and 30 minutes later a new contraction was induced. The experimental groups were made up of at least 2 preparations from different animals for each drug concentration tested. The IC50 values of the inhibition of the agonist-induced contractions were evaluated by linear regression analysis.

[2] = Acute toxicity in mice (LD50); assay type: in vivo; conditions: mouse, in vivo, mice, death rate 7 days after administration
Experimental: (§1) Female Albino Swiss mice [Crl: CD-1 (ICR) BR] with a body weight of 20-30 g and male Sprague Dawley rats [Crl: CD° BR] with a body weight of 200-300 g, from the Charles River Farm, Italy, were used for the trials. The animals were housed with free access to food and water and kept on a forced light-darkness cycle at 22°-24° C. until the day of the trials.
(§2) The acute toxicity was evaluated in female Albino Swiss mice after intraperitoneal or oral administrations. Four logarithmic scaled doses of the compounds were dissolved or suspended in 0.5% aqueous Methocel and administered at a volume of 10 ml/kg to groups of 4 mice/dose. The death rate was recorded 7 days after the administration.
(§3) The LD50 values and the relevant confidence limits were calculated according to the method of Weil (Biometrics, 8, 249, 1952).

Female Albino Swiss mice = experiment: Acute toxicity in mice (LD50); assay type: in vivo; conditions: in words; LD50/IC50 compared with Flavoxate
Experimental: as §1, §2, §3

[3] = in words, background; cited from earlier work
[4] = in words, background; cited from earlier work; remark: listed apart in the source
[5] = phasic contraction, read-out: IC50, inhibition of K^+ -induced rat bladder contractions, Phasic
[6] = tonic contraction, read-out: IC50, inhibition of K^+ -induced rat bladder contractions, Tonic

SMILES: COc1ccc(C(C#N)(CCCN(C)CCN(C)C(=O)c2cccc3c(=O)c(C)c(-c4ccccc4)oc23)C(C)C)cc1OC.Cl.O (stereo not drawn) [Example 14, 8-{2-[4-Cyano-4-(3,4-dimethoxyphenyl)-N,5-dimethylhexylamino]-N-methylethylcarbamoyl}-3-methyl-4-oxo-2-phenyl-4H-1-benzopyran hydrochloride hydrate]
- IC50 [1, 5]: 0.1 µM
- IC50 [1, 6]: 0.1 µM
- LD50 at 168 h ([2]; ip, i.p., read-out: Mice LD50 i.p.): 159 mg/kg
- LD50 at 168 h ([2]; po, p.o., read-out: Mice LD50 p.o.): 346 mg/kg
- relative therapeutic index (LD50/IC50) versus Flavoxate (Female Albino Swiss mice): considerably safer than Flavoxate

SMILES: Cc1c(-c2ccccc2)oc2c(C(=O)OCCN3CCCCC3)cccc2c1=O [Flavoxate, 8-(2-(N-piperidino)ethoxycarbonyl)-3-methyl-4-oxo-2-phenyl-4H-1-benzopyran, reference compound]
- IC50 [1, 5]: 13 µM
- IC50 [1, 6]: 13 µM
- stability in physiological fluids [3]: low stability in physiological fluids
- anticholinergic effects [4]: practical absence of anticholinergic effects
